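The compound was tested at five concentrations on cells cultured in 96-well plates, with a 48-hour exposure period. At the GI50, growth is halved.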 Active and inactive are the calls of the source. Cut-off read from the data, not from the text of the source: active = GI50 up to about 1.1 µM and inactive = higher.
What was measured:
Assay in all cases: NCI tumour cell line growth inhibition, 48 h
PC-3 = tested on: PC-3
NCI-H460 = tested on: NCI-H460
SR = tested on: SR
SW-620 = tested on: SW-620
SK-OV-3 = tested on: SK-OV-3
K562 = tested on: K562
EKVX = tested on: EKVX
MDA-MB-435 = tested on: MDA-MB-435
NCI/ADR-RES = tested on: NCI/ADR-RES
786-0 = tested on: 786-0
BT-549 = tested on: BT-549
OVCAR-4 = tested on: OVCAR-4
NCI-H23 = tested on: NCI-H23
MOLT-4 = tested on: MOLT-4
SNB-19 = tested on: SNB-19
MDA-MB-231 = tested on: MDA-MB-231
DU-145 = tested on: DU-145
SK-MEL-5 = tested on: SK-MEL-5
OVCAR-3 = tested on: OVCAR-3
SF-295 = tested on: SF-295

Row | SMILES | GI50 (PC-3) | GI50 (NCI-H460) | GI50 (SR) | GI50 (SW-620) | GI50 (SK-OV-3) | GI50 (K562) | GI50 (EKVX) | GI50 (MDA-MB-435) | GI50 (NCI/ADR-RES) | GI50 (786-0) | GI50 (BT-549) | GI50 (OVCAR-4) | GI50 (NCI-H23) | GI50 (MOLT-4) | GI50 (SNB-19) | GI50 (MDA-MB-231) | GI50 (DU-145) | GI50 (SK-MEL-5) | GI50 (OVCAR-3) | GI50 (SF-295)
1 | CSC1=C(C(=O)Nc2ccccc2)C(N)=NC1=O | > 100 µM (inactive) | > 100 µM (inactive) | 32.4 µM (inactive) | > 100 µM (inactive) | > 100 µM (inactive) | > 100 µM (inactive) | 77.1 µM (inactive) | > 100 µM (inactive) | > 100 µM (inactive) | > 100 µM (inactive) | > 100 µM (inactive) | > 100 µM (inactive) | > 100 µM (inactive) | > 100 µM (inactive) | > 100 µM (inactive) | > 100 µM (inactive) | > 100 µM (inactive) | > 100 µM (inactive) |  | 
2 | CC(OC(C)(C)C)[C@H](NC(=O)OCc1ccccc1)C(=O)NC(OCc1ccccc1)[C@H]1COC(C)(C)O1 (stereo partly drawn) | > 10 µM (inactive) | > 10 µM (inactive) |  | > 10 µM (inactive) | > 10 µM (inactive) | > 10 µM (inactive) | > 10 µM (inactive) | > 10 µM (inactive) | > 10 µM (inactive) | > 10 µM (inactive) | > 10 µM (inactive) | > 10 µM (inactive) | > 10 µM (inactive) | > 10 µM (inactive) | > 10 µM (inactive) | > 10 µM (inactive) | > 100 µM (inactive) | > 10 µM (inactive) | > 10 µM (inactive) | > 10 µM (inactive)
3 | O=C(O)C(SC1=NC(=O)C2(NN1)c1ccccc1-c1ccccc12)SC1=NC(=O)C2(NN1)c1ccccc1-c1ccccc12 | > 10 µM (inactive) | > 10 µM (inactive) |  | > 10 µM (inactive) | > 10 µM (inactive) | 9.51 µM (inactive) | 9.64 µM (inactive) | > 10 µM (inactive) | > 10 µM (inactive) | > 10 µM (inactive) | > 10 µM (inactive) | > 10 µM (inactive) | > 10 µM (inactive) | 4.09 µM (inactive) | > 10 µM (inactive) | > 10 µM (inactive) | > 10 µM (inactive) | > 10 µM (inactive) | > 10 µM (inactive) | > 10 µM (inactive)
4 | COc1cc2ccccc2oc1=O | > 100 µM (inactive) | 45.5 µM (inactive) | > 100 µM (inactive) | > 100 µM (inactive) |  | > 100 µM (inactive) | 51.1 µM (inactive) | > 100 µM (inactive) | 97.5 µM (inactive) | > 100 µM (inactive) | 19.8 µM (inactive) | > 100 µM (inactive) | 94.2 µM (inactive) | 67.3 µM (inactive) | > 100 µM (inactive) | > 100 µM (inactive) | > 100 µM (inactive) | > 100 µM (inactive) | 74.5 µM (inactive) | > 100 µM (inactive)
5 | O=C(N/N=C\c1c(O)ccc2ccccc12)c1ccncc1 | 0.752 µM (active) |  | 0.558 µM (active) | 0.769 µM (active) | 0.693 µM (active) | 0.0553 µM (active) |  | 1.65 µM (inactive) | 0.562 µM (active) | 0.2 µM (active) | 0.927 µM (active) | 0.237 µM (active) | 1.53 µM (inactive) | 0.0313 µM (active) | 1.21 µM (inactive) | 0.254 µM (active) | 2.88 µM (inactive) | 0.341 µM (active) | 1.22 µM (inactive) | > 5.98 µM (inactive)
